Test results taken from publication PMC12518634, “The noncanonical function of liver-type phosphofructokinase potentiates the efficacy of HDAC inhibitors in cancer” (Signal Transduction and Targeted Therapy, 2025).
Structures can show the parent of a compound that is named as a salt. Where two headings read alike, the source gives them in different places.

Columns and labels:
1405R3 = test: High-throughput drug screen, CellTiter-Glo viability, 72 h; format: cell-based, human; parameters: AUC: scale not given here; conditions: 1405R3 DSRT analysis; for AUC: area under the dose-response curve; for DSS: drug sensitivity score; for MIN: lower asymptote of fitted dose-response curve; for SLOPE: slope of fitted dose-response curve; for EC50: CellTiter-Glo viability, 72 h, fitted dose-response curve, Min.Conc.tested 1, Max.Conc.tested 10000, GI50, read-out: EC50
Outline: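 Responses are drug sensitivity scores (efficacy cutoff ≥10), fitted from CellTiter-Glo luminescence. Each drug was given at five concentrations (10 to 0.001 μM, tenfold steps) in duplicate for 72 h. Cells were plated at 3000/well 24 h before dosing.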

783C-6 = test: as above; format: cell-based, human; parameters: AUC: scale not given here; conditions: for DSS: DSS of DSRT analysis; for AUC: area under the dose-response curve; for MIN: minimum of dose-response curve; for EC50: 72 h, read-out: EC50; for SLOPE: slope of fitted dose-response curve
Outline: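 Cholangiocarcinoma cells were seeded at 3000/well in 384-well plates and dosed after 24 h. Drugs were tested at 10, 1, 0.1, 0.01 and 0.001 μM in duplicate for 72 h, with viability read by CellTiter-Glo luminescence.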

[1] = 783C-6 cells, DSRT analysis, CellTiter-Glo viability, concentrations tested 1 to 10000 (unit inferred), GI50

| SMILES | AUC (1405R3) | DSS (1405R3) | MIN (1405R3) | DSS (783C-6; 783C-6 cells) | AUC (783C-6; 783C-6 cells) | MIN (783C-6; 783C-6 cells) | EC50 (783C-6; Homo sapiens) | SLOPE (1405R3) | SLOPE (783C-6; 783C-6 cells) | EC50 (1405R3; Homo sapiens) | EC50 (783C-6; [1]) | EC50 (1405R3) |
| --- | --- | --- | --- | --- | --- | --- | --- | --- | --- | --- | --- | --- |
| COC(=O)c1ccc2c(c1)NC(=O)/C2=C(\Nc1ccc(N(C)C(=O)CN2CCN(C)CC2)cc1)c1ccccc1 [Nintedanib] | 13.7 | 0.8 | 84 | 1.6 | 17.9 | 72.2 | 2.29 µM | – | – | – | – | – |
| N[C@H]1CC[C@H](N[C@@H]2C[C@H]2c2ccccc2)CC1 [ORY-1001] | 0.1 | 0 | 100 | 0 | 14.3 | 92.7 | – | – | – | – | – | – |
| O=C(Nc1ccc(O)c(C(=O)O)c1)c1cccc(NC(=O)c2ccco2)c1 [OSS_128167] | 8.4 | 0 | 94.6 | 0 | 7.3 | 92.5 | – | -0.1 | -0.3 | – | – | – |
| Cc1sc2c(c1C)C(c1ccc(Cl)cc1)=N[C@@H](CC(=O)Nc1ccc(O)cc1)c1nnc(C)n1-2 [OTX015] | 90.2 | 10.4 | 24.3 | 0 | 6.1 | 90.3 | – | – | – | 0.649 µM | – | – |
| O=C(O)C(=O)O.[NH-][C@@H]1CCCC[C@H]1[NH-].[Pt+2] [Oxaliplatin] | 20.5 | 1.7 | 78.3 | 3.8 | 41.2 | 65.7 | – | -2.2 | -1.1 | – | 0.659 µM | – |
| COc1ccc(Cn2ccc3ccc(C(=O)NO)cc32)cc1 [PCI-34051] | 0.1 | 0 | 100 | 0 | 2 | 95.4 | – | -0.1 | -0.7 | – | – | – |
| COc1ccccc1S(=O)(=O)Nc1ccc2c(c1)CN(C)C(=O)N2 [PFI-1] | 38.8 | 4.4 | 55.4 | 0 | 7.2 | 94.7 | – | -2.5 | -2.5 | – | – | 1.35 µM |
| O=C([C@@H](Cc1cccc(C(F)(F)F)c1)NS(=O)(=O)c1cc(F)c2c(c1)CCNC2)N1CCCC1 [PFI-2 HCl] | 15.4 | 0 | 84.5 | 0 | 2.2 | 95.2 | – | – | – | – | – | – |
| O=C(NNc1ccccn1)c1ccccn1 [PFI-90] | 8.1 | 0 | 93.5 | 0 | 10.9 | 92.2 | – | -0.2 | -2.5 | – | – | – |
| CC(=O)O[C@H]1C(=O)[C@@]2(C)[C@H]([C@H](OC(=O)c3ccccc3)[C@]3(O)C[C@H](OC(=O)[C@H](O)[C@@H](NC(=O)c4ccccc4)c4ccccc4)C(C)=C1C3(C)C)[C@]1(OC(C)=O)CO[C@@H]1C[C@@H]2O [Paclitaxel] | 129.3 | 14.6 | 37.8 | 21.1 | 167.6 | 52.1 | 0.0019 µM | – | – | 0.0821 µM | – | – |
| CCN1C(=O)N(c2c(F)c(OC)cc(OC)c2F)Cc2cnc3[nH]c(CN4CCOCC4)cc3c21 [Pemigatinib] | 7 | 0 | 76.8 | 4.8 | 62.9 | 78.8 | – | – | – | – | – | – |
| Cc1ccc(C(=O)Nc2ccc(CN3CCN(C)CC3)c(C(F)(F)F)c2)cc1C#Cc1cnc2cccnn12 [Ponatinib] | 16.5 | 0.6 | 87 | 7 | 59.9 | 66.9 | 0.155 µM | – | – | – | – | – |
| CCCCc1nc2cc(/C=C/C(=O)NO)ccc2n1CCN(CC)CC [Pracinostat] | 75.5 | 8.7 | 3.4 | 7.3 | 64.3 | 3.1 | 2.19 µM | – | – | 1.66 µM | – | – |
| Cn1cc(CNCC2CCN(c3ncc(C(=O)NO)cn3)CC2)c2ccccc21 [Quisinostat] | 180.7 | 21.1 | 0.1 | 26.9 | 227.2 | 1.2 | 0.05 µM | – | – | 0.156 µM | – | – |
| O=C(O)C(Cc1c[nH]c2ccccc12)N1C(=O)c2ccccc2C1=O (stereo not shown) [RG108] | 0.1 | 0 | 99.8 | 0 | 9.4 | 94 | – | -1.1 | -0.1 | – | – | – |
| Nc1cc(F)ccc1NC(=O)/C=C/c1cnn(C/C=C/c2ccccc2)c1 [RGFP966] | 0.2 | 0 | 98.3 | 0 | 7 | 93.9 | – | – | – | – | – | – |
| C[C@@H]1O[C@@H](O[C@H]2[C@H](O[C@H]3[C@H](O[C@H]4CC[C@]5(C)[C@H]6CC=C7[C@@H]8CC(C)(C)CC[C@]8(C(=O)O)CC[C@@]7(C)[C@]6(C)CC[C@H]5C4(C)C)OC[C@H](O)[C@@H]3O)O[C@H](CO)[C@@H](O)[C@@H]2O)[C@H](O)[C@H](O)[C@H]1O [Raddeanin A] | 56.1 | 6.3 | 1.8 | 5.9 | 52.9 | 3.4 | – | -2.5 | -2.5 | – | 2.88 µM | 2.72 µM |
| CN(C)Cc1ccc(S(=O)(=O)n2ccc(/C=C/C(=O)NO)c2)cc1 [Resminostat] | 45 | 5 | 20.3 | 4.3 | 39.6 | 25.4 | 3 µM | – | – | 2.77 µM | – | – |
| O=C(CCCCCCNC(=O)c1cnc(N(c2ccccc2)c2ccccc2)nc1)NO [Ricolinostat] | 20.6 | 1.9 | 71.1 | 2.2 | 22.4 | 66.7 | 2.14 µM | – | – | 1.95 µM | – | – |
| CC(C)N(CCCNC(=O)Nc1ccc(C(C)(C)C)cc1)C[C@H]1O[C@@H](n2cc(Br)c3c(N)ncnc32)[C@H](O)[C@@H]1O [SGC 0946] | 6.1 | 0 | 93.6 | 0 | 19.5 | 94.1 | – | – | – | – | – | – |
| COc1ccc(CCc2nc3cc(-c4c(C)noc4C)ccc3n2C[C@H](C)N2CCOCC2)cc1Cl [SGC-CBP30] | 28.3 | 0 | 84.6 | 0 | 4.1 | 86.4 | – | – | – | – | – | – |
| Cc1cc(Nc2ccc(NC(=O)c3ccc(Nc4ccnc5ccccc45)cc3)cc2)nc(N)n1 [SGI-1027] | 19.4 | 0 | 87.3 | 0 | 2.3 | 92.3 | – | -0.4 | -1 | – | – | – |
| CN1CCC(CNc2ccc3ncc(-c4cccc(OC(F)(F)F)c4)n3n2)CC1 [SGI-1776 free base] | 51.4 | 5.7 | 1.9 | 4.9 | 44.9 | 10.3 | – | -2.5 | -2.5 | – | 3.23 µM | 3.06 µM |
